Experimental data from US5218125A, “Antihypertensive compound and method of use thereas” (Merck & Co., Inc., priority 1992, dated 1993).

Molecular target: T1, Angiotensin II (A II) receptor (Oryctolagus cuniculus, UniProt P34976)
T1 construct: 125I-Sar1,Ile8-angiotensin II displacement
T1 sequence (P34976 1-359): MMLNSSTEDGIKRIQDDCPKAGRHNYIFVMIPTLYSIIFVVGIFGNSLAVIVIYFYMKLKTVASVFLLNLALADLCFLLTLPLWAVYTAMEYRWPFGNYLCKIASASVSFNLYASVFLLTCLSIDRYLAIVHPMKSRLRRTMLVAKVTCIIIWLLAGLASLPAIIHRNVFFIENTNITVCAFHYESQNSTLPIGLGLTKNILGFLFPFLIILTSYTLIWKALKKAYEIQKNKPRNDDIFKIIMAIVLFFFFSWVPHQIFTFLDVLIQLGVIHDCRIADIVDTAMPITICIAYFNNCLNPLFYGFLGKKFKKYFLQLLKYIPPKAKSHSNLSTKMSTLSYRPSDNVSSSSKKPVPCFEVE
Assay: Receptor binding assay using rabbit aortae membrane preparation (125I-Sar1 Ile8-angiotensin II displacement, "IC50" assay)
Description: This assay is also referred to herein as the "IC50 " assay.
RECEPTOR BINDING ASSAY USING RABBIT AORTAE MEMBRANE PREPARATION
Three frozen rabbit aortae (obtained from Pel-Freeze Biologicals) were suspended in 5 mM Tris-0.25M Sucrose, pH 7.4 buffer (50 mL) homogenized, and then centrifuged. The mixture was filtered through a cheesecloth and the supernatant was centrifuged for 30 minutes at 20,000 rpm at 4° C. The pellet thus obtained was resuspended in 30 ml of 50 mM Tris-5 mM MgCl2 buffer containing 0.2% Bovine Serum Albumin and 0.2 mg/mL Bacitratin and the suspension was used for 100 assay tubes. Samples tested for screening were done in duplicate. To the membrane preparation (0.25 mL) there was added ^125 I-Sar^1 Ile^8 -angiotensin II [obtained from New England Nuclear] (10 uL; 20,000 cpm) with or without the test sample and the mixture was incubated at 37° C. for 90 minutes. The mixture was then diluted with ice-cold 50 mM Tris-0.9% NaCl, pH 7.4 (4 mL) and filtered through a glass fiber filter (GF/B Whatman 2.4" diameter). The filter was soaked in scintillation cocktail (10 mL) and counted for radioactivity using Packard 2660 Tricarb liquid scintillation counter. […]

A II antagonist activity by the IC50 assay: exhibits A II antagonist activity
Structure (SMILES): CCCC(O)c1nc(Cl)c(CO)n1Cc1ccc(-c2ccccc2-c2nn[nH]n2)cc1 (stereo not shown) [Compound (I)]
